Measurements taken from ChEMBL document CHEMBL5726195, “Pharmaceutically active pyrazine derivatives” (2017).

Molecular target: T1, Serine/threonine-protein kinase Chk1 (Homo sapiens, UniProt O14757)
T1 sequence (O14757 whole entry): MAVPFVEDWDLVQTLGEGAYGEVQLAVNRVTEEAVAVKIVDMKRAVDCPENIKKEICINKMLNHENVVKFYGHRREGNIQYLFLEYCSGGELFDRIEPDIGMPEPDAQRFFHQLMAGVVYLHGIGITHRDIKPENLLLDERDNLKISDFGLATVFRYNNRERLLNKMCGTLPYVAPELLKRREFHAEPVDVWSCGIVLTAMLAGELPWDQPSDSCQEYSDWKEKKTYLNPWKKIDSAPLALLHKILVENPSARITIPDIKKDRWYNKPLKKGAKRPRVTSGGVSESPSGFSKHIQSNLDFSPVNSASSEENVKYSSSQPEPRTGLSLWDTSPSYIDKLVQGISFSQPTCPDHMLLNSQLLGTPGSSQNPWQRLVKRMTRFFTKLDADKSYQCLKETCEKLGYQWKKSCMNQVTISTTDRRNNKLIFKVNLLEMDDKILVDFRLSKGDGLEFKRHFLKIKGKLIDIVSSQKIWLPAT
Experiment: Kinase Inhibition Asssay: Reaction Buffer:Base Reaction buffer: 20 mM Hepes (pH 7.5), 10 mM MgCl2, 1 mM EGTA, 0.02% Brij35, 0.02 mg/ml BSA, 0.1 mM Na3VO4, 2 mM DTT, 1% DMSORequired cofactors are added individually to each kinase reactionReaction Procedure:(i) Prepare indicated substrate in freshly prepared Base Reaction Buffer(ii) Deliver any required cofactors to the substrate solution above(iii) Deliver indicated kinase into the substrate solution and gently mix(iv) Deliver compounds in DMSO into the kinase reaction mixture(v) Deliver 33P-ATP (specific activity 0.01 μCi/μl final) into the reaction mixture to initiate the reaction.(vi) Incubate kinase reaction for 120 minutes at room temperature(vii) Reactions are spotted onto P81 ion exchange paper (Whatman #3698-915)(viii) Wash filters extensively in 0.1% phosphoric acid.(ix) Dry filters and measure counts in scintillation counterKinase Information:CHK-1 Genbank Accession # AF016582Recombinant full length construct, N-terminal GST tagged, purified from insect cells.No special measures were taken to activate this kinase.Final concentration in assay=0.5 nMSubstrate: CHKtidePeptide sequence: [[…]]Final concentration in assay=20 μM

| Structure (SMILES) | IC50 [nM] |
| --- | --- |
| COc1cc(CCNC[C@@H]2CCCNC2)c(Cl)cc1NC(=O)Nc1cnc(C#N)cn1 | 0.1 |
| COc1cc(CCNC[C@H]2CCCNC2)c(Cl)cc1NC(=O)Nc1cnc(C#N)cn1 | 0.06 |
